The values that follow come from patent US8044213B2, “Thiazolyl-benzimidazoles” (Hoffmann-La Roche Inc., priority 2008, dated 2011).

In general, IC50 refers to the concentration that gives 50% inhibition. Higher therefore signals a need for much substance.

T1 sequence (P53350 whole entry): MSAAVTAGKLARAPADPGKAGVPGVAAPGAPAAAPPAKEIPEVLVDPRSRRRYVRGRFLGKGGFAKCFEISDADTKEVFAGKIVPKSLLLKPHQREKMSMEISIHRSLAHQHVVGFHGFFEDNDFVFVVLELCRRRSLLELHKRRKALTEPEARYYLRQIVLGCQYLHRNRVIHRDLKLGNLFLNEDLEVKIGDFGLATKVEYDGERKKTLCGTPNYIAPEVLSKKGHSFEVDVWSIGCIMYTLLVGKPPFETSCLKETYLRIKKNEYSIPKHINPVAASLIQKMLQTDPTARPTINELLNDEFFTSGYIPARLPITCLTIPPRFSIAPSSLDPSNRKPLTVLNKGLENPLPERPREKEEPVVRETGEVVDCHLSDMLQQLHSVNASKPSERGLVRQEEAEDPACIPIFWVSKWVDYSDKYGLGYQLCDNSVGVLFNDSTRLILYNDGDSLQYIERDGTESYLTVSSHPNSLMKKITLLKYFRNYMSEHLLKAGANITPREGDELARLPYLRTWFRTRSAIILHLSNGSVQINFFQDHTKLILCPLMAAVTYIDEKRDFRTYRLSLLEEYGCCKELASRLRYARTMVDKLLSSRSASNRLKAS

The test addresses T1, PLK1 (Homo sapiens, UniProt P53350).
T1 construct: Full-length, active GST-Plk1 was purified from Sf9 insect cells; GST (N); made in house; host or cells: Sf9 insect cells
The experiment in a line: Biochemical Characterization Assay B (peptide substrate, LABCHIP EZ Reader II). Particulars: PLK1, peptide RRRAGALMDASFEEQ-CONH2, % conversion on LABCHIP EZ Reader II. As for the experimental part: Compounds were serially diluted to 6400, 2133, 711, 237, 79, 26, 8.78, 2.93, 0.98 and 0.33 μM in 100% DMSO. Diluted compound was further diluted 20 fold with Kinase Assay Buffer (KAB). Peptide RRRAGALMDASFEEQ-CONH2 (MW 2090) was diluted to 1.2 μM with KAB and ATP was added to 400 μM. PLK1 stock, prepared as described above, was diluted to 3 μg protein/mL with KAB right before it was added to MATRIX 384-Well Polypropylene Black Plates to start the reaction. 20 μL of KAB diluted compounds (or 5% DMSO in KAB for Total and Blank), 20 μL of KAB diluted peptide with ATP and 40 μL of KAB diluted PLK1 solution (KAB without PLK 1 for Blanks) were transferred to each well of the polypropylene plates. The reaction mixtures were incubated at room temperature for 40 minutes. Reactions were stopped by addition of 10 uL Reaction Stopping Buffer (RSB) to each well. Plates were then read on LABCHIP EZ Reader II from Caliper Life Science.
The IC50 values for each compound were generated using an Excel template. The % conversion readings of Total and Blank were used as 0% and 100% inhibition. The percent inhibition values of reactions in the presence of compounds were calculated, and plotted against compound concentrations. All data were fitted into a Dose Response One Site model (4 parameter logistic model) as the following: (A+4B−A)/(1+((x/C)^13)))), with A and B as the bottom and top of the curve (highest and lowest inhibition), respectively, and C as IC50 and D as Hill Coefficient of the compound.
`CN(C)CCN(C)Cc1ccc2ncn(-c3nc(-c4cccc(Cl)c4)c(C(N)=O)s3)c2c1` [Example 6, 4-(3-Chloro-phenyl)-2-(6-{[(2-dimethylamino-ethyl)-methyl-amino]-methyl}-benzoimidazol-1-yl)-thiazole-5-carboxylic acid amide] yielded an IC50 of 500 nM.

With `CC(C)(C)OC(=O)NC1CCN(Cc2ccc3ncn(-c4nc(-c5cccc(Cl)c5)c(C(N)=O)s4)c3c2)CC1` [Example 12], 666 nM corresponded to half-maximal inhibition (IC50).

As for `NC(=O)c1sc(-n2cnc3ccc(CN4CCC(N)CC4)cc32)nc1-c1cccc(Cl)c1` [Example 13, 2-[6-(4-Amino-piperidin-1-ylmethyl)-benzoimidazol-1-yl]-4-(3-chloro-phenyl)-thiazole-5-carboxylic acid amide], the 50% inhibitory concentration (IC50) amounted to 37 nM. This IC50 is about 18-fold lower than that of the molecule before.

For `CN1CCC(C(=O)NC2CCN(Cc3ccc4ncn(-c5nc(-c6cccc(Cl)c6)c(C(N)=O)s5)c4c3)CC2)CC1` [Example 14, 1-Methyl-piperidine-4-carboxylic acid (1-{3-[5-carbamoyl-4-(3-chloro-phenyl)-thiazol-2-yl]3H-benzoimidazol-5-ylmethyl}-piperidin-4-yl)-amide], the IC50 came out at 1480 nM.

For `CC(C)(C)OC(=O)NC(C)(C)C(=O)NC1CCN(Cc2ccc3ncn(-c4nc(-c5cccc(Cl)c5)c(C(N)=O)s4)c3c2)CC1` [Example 15, [1-(1-{3-[5-Carbamoyl-4-(3-chloro-phenyl)-thiazol-2-yl]-3H-benzoimidazol-5-ylmethyl}-piperidin-4-ylcarbamoyl)-1-methyl-ethyl]-carbamic acid tert-butyl ester], the IC50 worked out at 5270 nM.

`CC(C)(N)C(=O)NC1CCN(Cc2ccc3ncn(-c4nc(-c5cccc(Cl)c5)c(C(N)=O)s4)c3c2)CC1` [Example 16, 2-{6-[4-(2-Amino-2-methyl-propionylamino)-piperidin-1-ylmethyl]-benzoimidazol-1-yl}-4-(3-chloro-phenyl)-thiazole-5-carboxylic acid amide] registered an IC50 of 1290 nM.

Molecule `CN1CCC(Oc2ccc3ncn(-c4nc(-c5cccc(Cl)c5)c(C(N)=O)s4)c3c2)CC1` [Example 22, 4-(3-Chloro-phenyl)-2-[6-(1-methyl-piperidin-4-yloxy)-benzoimidazol-1-yl]-thiazole-5-carboxylic acid amide] registered an IC50 of 18 nM.

In turn, `NC(=O)c1sc(-n2cnc3ccc(OCC4CCNCC4)cc32)nc1-c1cccc(Cl)c1` [Example 23, 4-(3-Chloro-phenyl)-2-[6-(piperidin-4-ylmethoxy)-benzoimidazol-1-yl]-thiazole-5-carboxylic acid amide] yielded an IC50 of 17 nM.

Molecule `CN1CCC(COc2ccc3ncn(-c4nc(-c5cccc(Cl)c5)c(C(N)=O)s4)c3c2)CC1` [Example 24, 4-(3-Chloro-phenyl)-2-[6-(1-methyl-piperidin-4-ylmethoxy)-benzoimidazol-1-yl]-thiazole-5-carboxylic acid amide] showed an IC50 of 14 nM.

The molecule `NC(=O)c1sc(-n2cnc3ccc(OCCN4CCCCC4)cc32)nc1-c1cccc(Cl)c1` [Example 27, 4-(3-Chloro-phenyl)-2-[6-(2-piperidin-1-yl-ethoxy)-benzoimidazol-1-yl]-thiazole-5-carboxylic acid amide] yielded an IC50 of 264 nM.

In the case of `CN1CCN(CCOc2ccc3ncn(-c4nc(-c5cccc(Cl)c5)c(C(N)=O)s4)c3c2)CC1` [Example 28, 4-(3-Chloro-phenyl)-2-{6-[2-(4-methyl-piperazin-1-yl)-ethoxy]-benzoimidazol-1-yl}-thiazole-5-carboxylic acid amide], the IC50 was determined as 105 nM.

The molecule `CN(C)CCOc1ccc2ncn(-c3nc(-c4cccc(Cl)c4)c(C(N)=O)s3)c2c1` [Example 29, 4-(3-Chloro-phenyl)-2-[6-(2-dimethylamino-ethoxy)-benzoimidazol-1-yl]-thiazole-5-carboxylic acid amide] gave an IC50 of 356 nM.

As to `NC(=O)c1sc(-n2cnc3ccc(OCCCN4CCCCC4)cc32)nc1-c1cccc(Cl)c1` [Example 32, 4-(3-Chloro-phenyl)-2-[6-(3-piperidin-1-yl-propoxy)-benzoimidazol-1-yl]-thiazole-5-carboxylic acid amide], half-maximal inhibition (IC50) was put at 80 nM.
